The target in one data set is T1, human renin (Homo sapiens, UniProt P00797).
T1 sequence (P00797 67-406): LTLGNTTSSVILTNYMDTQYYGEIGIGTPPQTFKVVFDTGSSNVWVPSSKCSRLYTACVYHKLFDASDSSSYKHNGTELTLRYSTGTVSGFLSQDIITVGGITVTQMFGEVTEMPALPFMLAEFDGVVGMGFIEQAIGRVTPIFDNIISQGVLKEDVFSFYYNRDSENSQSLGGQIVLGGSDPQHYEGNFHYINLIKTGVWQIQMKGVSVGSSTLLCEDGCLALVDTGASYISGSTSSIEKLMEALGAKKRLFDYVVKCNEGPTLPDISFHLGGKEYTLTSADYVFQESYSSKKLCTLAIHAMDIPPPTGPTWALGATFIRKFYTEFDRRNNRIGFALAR
The experiment in a line: IC50 on human renin, angiotensin I generation from tetradecapeptide renin substrate (assay of Burton et al). It is filed as biochemical. How it is done:
The assay for testing the inhibitory activities of the pentapeptides on renin is described in Burton, J. et al, Biochem. 14: 3892-3898 (1975), which is herein incorporated by reference.
The 11 pentapeptides shown in Table I were synthesized by standard solid phase peptide synthesis as shown in the description following the table and the IC50 (concentration at which inhibition is 50%) value on human renin in the assay of Burton et al, supra, was determined for each sample.
Angiotensin I standards and tetradecapeptide renin substrate (TDP) were obtained from Peninsula Laboratories Inc. (San Mateo, CA). Renin was a gift of Dr. E. Slater (1980). Angiotensin I concentration was determined by radioimmunoassay using a commercially available kit (Clinical Assays, Cambridge, MA).
Standard renin solution (V3) is diluted 4-fold with M Tris-lysozyme buffer (pH 7.40). Concentration of […] of the renin inhibitor being tested are also prepared in the Tris-lysozyme buffer. For the uninhibited reaction Tris-lysozyme buffer alone is used in place of the inhibitor solution.
Reaction mixtures containing TDP solution ([…], 25 µM), renin solution (50 liters, 20-fold diluted), and the inhibitor (50 liters, 50-1000 M) were incubated for 1 hr at 37°, diluted 1000-fold and assayed for angiotensin I.
Inhibition is determined by the following equation:
% Inh.=((ng ANG Iunhib -ng ANG Iinh)/ng ANG
IC50 is determined by plotting Percent inhibition (% Inh.) against the inhibitor concentration and interpolating to determine the molarity of inhibitor at which 50% inhibition is observed.
Cross-reactivity of TDP with ANG I is less than 0.05%.

The test system of data set [1] is renin dependent hypertension. The experiment in a line: Acute renovascular hypertension model, inflatable aortic cuff, monkey. The format is in vivo, Macaca fascicularis. As to conditions: one monkey, cuff inflated. How it is done:
The animal model of acute renovascular hypertension is prepared by surgically implanting an inflatable cuff about the aorta above the left kidney of an adult Macaca fascicularis as descirbed by Cody, R. J. et al (1980) Hypertension. The right kidney is subsequently removed and catheters implanted in the right iliac vein and artery. Two arterial catheters lead from above and below the constricting cuff to strain gauges permit blood pressure to be measured both above and below the cuff.
Inflation of the cuff creates a measurable amount of ischemia to the remaining kidney and renin dependent hypertension develops in about one hour.
The results of the injection of (RI-78) on the blood pressure and plasma renin level of one monkey are summarized below. The converting enzyme inhibitor teprotide (Ondetti et al, 19) is used as a control.

The subject of another data set is isolated gut section. The experiment in a line: In vitro transport of radiolabeled pentapeptide across isolated gut section. The format is in vitro ADME. As to conditions: radiolabeled pentapeptide added to one side of an isolated gut section, label measured on the other side. An excerpt: Of particular interest is the fact that the peptides of the present invention are short chained, and can potentially be used as orally active peptides.

Another data set addresses renin. As to conditions: pH 7.4; Poulsen et al 1973; read-out: inhibitory constant (KI); cited from earlier work.
[2] abbreviates: IC50 (concentration at which inhibition is 50%), Table I, human renin.
[3] abbreviates: IC50, TDP substrate, pH 7.40, 1 hr at 37°.
Setting [4] is: Table I, human renin, read-out: IC50 (concentration at which inhibition is 50%).
[5] abbreviates: time 145 min, injection of teprotide (control).
Setting [6] is: printed with the characterisation data of each peptide, TDP substrate, pH 7.40, 1 hr at 37°, read-out: IC50.

Where two headings read alike, the source gives them in different places. Where a SMILES comes first, the peptide text is derived from it. Where no end group is shown, it is not given here. [ ]: non-standard residue; d: D form. Phe(4-Cl) = N[C@@H](Cc1ccc(Cl)cc1)C(=O)O A value given as a limit tells only on which side of the number the result lay.

With `CC(C)[C@H](NC(=O)[C@H](Cc1ccccc1)NC(=O)[C@@H](N)Cc1ccc(Cl)cc1)C(=O)N[C@@H](Cc1ccc(O)cc1)C(=O)N[C@@H](CCCCN)C(N)=O` [RI-78, 4-chlorophenylalanylphenylalanylvalyltyrosyllysine-amide] (H-[Phe(4-Cl)]FVYK-NH2), the IC50 at human renin (setting [2]) and against human renin (setting [3]) was 70 µM each time. The “Blood Pressure” value came to 113 mm Hg in data set [1] (time 0 min, injection 0.5 mg RI-78); 65 mm Hg in data set [1] (time 10 min, injection 2.5 mg RI-78); 111 mm Hg in data set [1] (time 25 min (15 min after 2.5 mg RI-78), no further injection). Besides, the “Plasma Renin Activity” value in data set [1] (time 30 min (20 min after 2.5 mg RI-78), no further injection) came to 28.5. For the compound `CC(C)[C@H](NC(=O)[C@H](Cc1ccc(Cl)cc1)NC(=O)[C@@H](N)Cc1ccccc1)C(=O)N[C@@H](Cc1ccc(O)cc1)C(=O)N[C@@H](CCCCN)C(N)=O` [RI-80, Phenylalanyl-4-chlorophenylalanylvalyltyrosyllysineamide] (H-F[Phe(4-Cl)]VYK-NH2), the IC50 on human renin (setting [4]) amounted to 40 µM. The “transport across the gut” value in the data set with isolated gut section is “transported across the gut”. In the case of `CC(C)[C@H](NC(=O)[C@H](Cc1ccccc1)NC(=O)[C@@H](N)Cc1ccccc1)C(=O)N[C@@H](Cc1ccc(Cl)cc1)C(=O)N[C@@H](CCCCN)C(N)=O` [RI-85, Phenylalanylphenylalanylvalyl-4-chlorophenylalanyllysine-amide] (H-FFV[Phe(4-Cl)]K-NH2), the IC50 is roughly 100 µM against human renin (setting [2]) and 175 µM against human renin (setting [3]). In turn, `COc1ccc(C[C@H](NC(=O)[C@@H](N)Cc2ccccc2)C(=O)N[C@H](C(=O)N[C@@H](Cc2ccc(O)cc2)C(=O)N[C@@H](CCCCN)C(N)=O)C(C)C)cc1` [RI-102, Phenylalanyl-O-methyltyrosylvalyltyrosyllysine-amide] (H-FY(Me)VYK-NH2) came in with an IC50 against human renin (setting [2]) of 190 µM. Turning to `CC[C@H](C)[C@H](NC(=O)[C@H](CCC(N)=O)NC(=O)[C@@H]1CCCN1C(=O)[C@H](CCCNC(=N)N)NC(=O)[C@@H]1CCCN1C(=O)[C@H](Cc1c[nH]c2ccccc12)NC(=O)[C@@H]1CCC(=O)N1)C(=O)N1CCC[C@H]1C(=O)N1CCC[C@H]1C(=O)O` [Teprotide, teprotide, reference compound], in data set [1] (setting [5]), the “Blood Pressure” value is on record as 76 mm Hg and the “Plasma Renin Activity” value is reported as no less than 37. The compound “FFTYK-NH2 [RI-83, Phenylalanylphenylalanylthreonyltyrosyllysine-amide]” yielded an IC50 against human renin (setting [2]) of 3750 µM. Same read-out and setting: the figure for “FFVFK-NH2 [RI-84, Phenylalanylphenylalanylvalylphenylalanyllysine-amide]” is 750 µM; for “FFVYK-NH2 [RI-77, Phenylalanylphenylalanylvalyltyrosyllysine-amide]” it is 80 µM. With “FYVYK-NH2 [RI-81, Phenylalanyltyrosylvalyltyrosyllysine-amide]”, the IC50 on human renin (setting [2]) was 80 µM; against human renin (setting [3]), 150 µM. The Ki is the dissociation constant of the complex between target and ligand, obtained from inhibition or displacement. Take Leu-Leu-Val-TyrH2: the inhibition constant (Ki) on renin is 1020 µM.

For the compound “Phenylalanylphenylalanyl-threo-3-chloro-L-2-amino-butyryltyrosyllysine amide [RI-82]”, the IC50 turned out to be 1250 µM at human renin (setting [4]) and 2450 µM on human renin (setting [6]). In the same order, the values of “YFVYK-NH2 [RI-79, Tyrosylphenylalanylvalyltyrosyllysine-amide]” are 140 µM and 50 µM.
